US20110038796A1, “Method of Nuclear Medical Photography Using Dual-Isotopes” (ATOMIC ENERGY COUNCIL-INSTITUTE OF NUCLEAR ENERGY RESEARCH, priority 2009, published 2011)
Where a name gives a salt, the structure may show the parent alone.

How the values were obtained:
[1] = test system: dopamine transporter; assay: SPECT with [^99mTc]TRODAT-1 (single-isotope or dual-isotopes), specific uptake ratio in striatum; format: in vivo, Macaca Cyclopis
Experimental: (§1) Please refer to FIG. 1, which is a flow view showing a preferred embodiment according to the present disclosure. As shown in the figure, the present disclosure is a method of nuclear medical photography using dual-isotopes, where effect of using dual isotopes on diagnosing anomalies of dopamine and serotonin in primate's brain is evaluated. The present disclosure comprises the following steps: (a) Obtaining control group 11: A control group is obtained, comprising at least one first individual applied with an imaging agent of single-isotope of [^99mTc]TRODAT-1 for dopamine transporter; at least one second individual applied with an imaging agent of single-isotope of [^123I]ADAM for serotonin transporter; and at least one third individual applied with imaging agents of dual-isotopes of [^99mTc]TRODAT-1 and [^123I]ADAM. Therein, the individuals are non-human primates, like Macaca Cyclopis.
(§2) (b) Taking photos for control group 12: Photos of the first to the third individuals in the control group are taken through single photon emission computed tomography (SPECT). Therein, on taking the photo of the first individual applied with the single-isotope of [^99mTc]TRODAT-1, 90 mg/ml of KClO4 is applied to the first individual at first; and, then, after 20 minutes, 740 MBq (20 mCi) of [^99mTc]TRODAT-1 is injected from intravenous. After [^99mTc]TRODAT-1 is injected, a SPECT device equipped with dual-headed gamma cameras (Hawkeye, Millennium VG, General Elecral Medical System, Milwaukee, Wis. USA) coordinated with fan-beam collimators is used to take photos, where 15 dynamic sequence of brain images are taken during 30 minutes (2 min/frame). Therein, an energy window is set between 126 Kev and 154 Kev; data of 128×128 pixel-matrice are fetched; each photo are enlarged for 1.6 times; a photo is taken for each 3° from 360°; and, each of the two detectors is responsible for taking photos for 180°. After data are collected and processed through Metz filter with attenuation calibration, three three-dimensional (3D) photos of coronal, sagittal and transaxial sections are formed. On taking the photo of the second individual applied with the single-isotope of [^123I]ADAM, 185 MBq (5 mCi) of [^123I]ADAM is injected from intravenous; and, an energy window is set between 143 Kev and 175 Kev. On taking the photo of the third individual applied with the dual-isotopes, 90 mg/ml of KClO4 is applied to the […] at first; and, after 20 minutes, 740 MBq (20 mCi) of [^99mTc]TRODAT-1 and 185 MBq (5 mCi) of [^123I]ADAM are injected from intravenous almost simultaneously. Therein, an energy window for [^99mTc]TRODAT-1 is set between 129 Kev and 151 Kev and another energy window for [^123I]ADAM is set between 159 Kev and 175 Kev.
(§3) (c) Analyzing photos of control group 13: Magnetic resonance imaging (MRI) photos of the first to the third individuals are taken to provide reference information for the following analysis:
(§4) (c3) Analysis on dual-isotopes: The photo of the third individual applied with the dual-isotopes of [^123I]ADAM and [^99mTc]TRODAT-1 obtained in step (b) are processed through visual interpretation to figure out an SUR of [^99mTc]TRODAT-1 in striatum and an SUR of [^123I]ADAM in midbrain, thalamus, striatum and frontal cortex.

[2] = molecular target: dopamine transporter (Homo sapiens, UniProt Q01959); details: cited from earlier work
[3] = test system: serotonin transporter; assay: SPECT with [^123I]ADAM (single-isotope or dual-isotopes), specific uptake ratio in brain regions; format: in vivo, Macaca Cyclopis
Experimental: as §1, §2, §3
(c1) Analysis on [^123I]ADAM: The photo of the […] individual applied with the single-isotope of [^123I]ADAM obtained in step (b) are processed through visual interpretation to pick out regions of interest (ROI) abundant in serotonin transporter, like midbrain, thalamus, striatum and frontal cortex; and a region lack of serotonin transporter, like cerebellum, is set as background. Mean counts per pixel (MCPP) of the ROIs are deducted with MCPPs of the background and then are divided by the MCPPs of the background to figure out a specific uptake ratios (SUR) of the single-isotope of [^123I]ADAM.
as §4

[4] = 180 to 210 minutes after injection

dopamine transporter (Homo sapiens, UniProt Q01959), sequence (Q01959 whole entry): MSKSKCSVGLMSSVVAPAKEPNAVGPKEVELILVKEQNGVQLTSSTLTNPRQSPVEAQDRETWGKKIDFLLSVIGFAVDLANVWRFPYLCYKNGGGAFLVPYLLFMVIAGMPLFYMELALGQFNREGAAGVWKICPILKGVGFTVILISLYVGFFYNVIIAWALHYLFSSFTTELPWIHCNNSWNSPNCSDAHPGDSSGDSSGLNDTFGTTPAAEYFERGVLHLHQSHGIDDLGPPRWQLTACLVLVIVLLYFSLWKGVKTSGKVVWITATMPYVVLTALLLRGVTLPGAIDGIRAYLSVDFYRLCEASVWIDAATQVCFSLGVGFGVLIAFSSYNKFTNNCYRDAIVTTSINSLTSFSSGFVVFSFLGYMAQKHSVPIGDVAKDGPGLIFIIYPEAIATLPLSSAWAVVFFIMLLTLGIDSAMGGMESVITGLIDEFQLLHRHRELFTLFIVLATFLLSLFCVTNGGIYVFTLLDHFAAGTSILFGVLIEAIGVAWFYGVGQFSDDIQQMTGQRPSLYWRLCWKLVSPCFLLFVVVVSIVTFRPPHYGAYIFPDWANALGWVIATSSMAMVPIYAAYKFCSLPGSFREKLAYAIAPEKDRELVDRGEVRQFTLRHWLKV

CN1[C@H]2CC[C@@H]1[C@@H](CN(CC[S-])CC[N-]CC[S-])[C@@H](c1ccc(Cl)cc1)C2.[O]=[99Tc+4] [[^99mTc]TRODAT-1]
[^99mTc]TRODAT-1 SUR of striatum, single-isotope versus dual-isotopes [1, 4]: no big difference
time to reach the highest binding level after injection [2]: within two hours

CN(C)Cc1ccccc1Sc1ccc([123I])cc1N [[^123I]ADAM]
[^123I]ADAM photos, single-isotope versus dual-isotopes [3, 4]: no big difference
binding of [^123I]ADAM in brain regions (SPECT photos) ([3]; 180 to 210 minutes after injection, midbrain, thalamus and striatum, single-isotope or dual-isotopes): bound to regions abundant in serotonin transporter
[^123I]ADAM SURs, single-isotope versus dual-isotopes ([3]; striatum, thalamus, midbrain and frontal cortex): no big difference

CNCCC(Oc1ccc(C(F)(F)F)cc1)c1ccccc1 (stereo not drawn) [fluoxetine]
[^99mTc]TRODAT-1 SURs after pretreatment with fluoxetine ([1]; dual-isotopes, 180 to 210 minutes after injection, pretreated with fluoxetine for 16 hours): no big changes
uptakes of [^99mTc]TRODAT-1 of striatum after pretreatment with fluoxetine versus not pretreated (conclusion) ([1]; pretreated with fluoxetine for 16 hours): no big difference

COC(=O)C(c1ccccc1)C1CCCCN1 (stereo not drawn) [methylphenidate HCl]
uptakes of [^123I]ADAM after pretreatment with methylphenidate HCl versus not pretreated ([3]; midbrain, striatum, thalamus and frontal cortex, dual-isotopes, 180 to 210 minutes after injection, methylphenidate HCl 1 mg/kg): no big difference
specific uptakes of [^123I]ADAM after pretreatment with methylphenidate HCl versus not pretreated (conclusion) ([3]; midbrain, thalamus, striatum and frontal cortex): no big changes
[^123I]ADAM SURs after pretreatment with methylphenidate HCl ([3]; striatum, thalamus and midbrain, dual-isotopes, methylphenidate HCl 1 mg/kg): no big changes
uptakes of [^99mTc]TRODAT-1 of striatum after pretreatment with methylphenidate HCl (conclusion) ([1]; dual-isotopes): obviously reduced
[^99mTc]TRODAT-1 SURs after pretreatment with methylphenidate HCl ([1]; dual-isotopes, 180 to 210 minutes after injection, methylphenidate HCl 1 mg/kg 10 minutes before): greatly lowered
